Measurements: patent US20260355196A1, “INHIBITORS AND DEGRADERS OF PIP4K PROTEIN” (Larkspur Biosciences, Inc., priority 2023, published 2026)

target: T1, PIP4K2C (Homo sapiens, UniProt Q8TBX8); assay: HiBiT PIP4K2C degradation assay in MOLT-4 cells (endogenous PIP4K2C C-terminally tagged with HiBiT); assay type: cell-based; set-up: untagged in primary human PBMCs and monocyte-derived dendritic cells; details: 6 hours of incubation time, rather than 24 hours; MOLT-4, top concentration 10 micromolar; read-out: HiBIT-degradation MOLT4 PIP4k2C DC50 (6 hours, marked *)
T1 sequence (Q8TBX8 1-421): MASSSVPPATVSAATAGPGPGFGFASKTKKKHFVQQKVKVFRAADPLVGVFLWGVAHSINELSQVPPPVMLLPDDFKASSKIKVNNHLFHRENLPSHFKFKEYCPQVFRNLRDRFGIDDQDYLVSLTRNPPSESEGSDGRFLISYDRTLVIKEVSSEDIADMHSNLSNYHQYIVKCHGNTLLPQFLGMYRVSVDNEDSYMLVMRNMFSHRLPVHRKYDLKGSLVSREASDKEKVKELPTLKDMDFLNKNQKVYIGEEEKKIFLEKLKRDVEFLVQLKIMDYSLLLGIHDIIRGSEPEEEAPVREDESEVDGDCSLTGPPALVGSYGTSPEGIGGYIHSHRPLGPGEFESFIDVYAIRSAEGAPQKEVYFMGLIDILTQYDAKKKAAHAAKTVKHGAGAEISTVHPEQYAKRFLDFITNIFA
Procedure, shortened: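 Luminescent HiBiT lytic readout of residual PIP4K2C-HiBiT (CRISPR knock-in, MOLT-4, phenol red-free RPMI-1640 + 10% FBS). Cells exposed 6 or 24 h at 37 C to compound, top 10 micromolar, 3-fold, 10 points, duplicate. Hill fit (Levenberg-Marquardt) gives DC50.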

DC50, < 0.5 µM:
O=C1CC[C@H](Nc2ccc(N3CCN([C@H]4CC[C@H](C(=O)N[C@H]5CC[C@H](Nc6ncc(F)c(-c7cccc(N8CCCCC8=O)c7)n6)CC5)CC4)CC3)c(F)c2)C(=O)N1 (single isomer, unassigned) [Compound 458]
O=C1CCC(Nc2ccc(N3CCN([C@H]4CC[C@H](C(=O)N[C@H]5CC[C@H](Nc6ncc(F)c(-c7cccc(C(=O)N8CC[C@H](O)C8)c7)n6)CC5)CC4)CC3)c(F)c2)C(=O)N1 (stereo partly drawn) [Compound 537, trans-4-(4-(4-((2,6-dioxopiperidin-3-yl)amino)-2-fluorophenyl)piperazin-1-yl)-N-(trans-4-((5-fluoro-4-(3-((S)-3-hydroxypyrrolidine-1-carbonyl)phenyl)pyrimidin-2-yl)amino)cyclohexyl)cyclohexane-1-carboxamide]
O=C1CCC(Nc2ccc(C3CCN(CC4CCN(C(=O)[C@H]5CC[C@H](Nc6ncc(F)c(-c7cccc(-n8ccccc8=O)c7)n6)CC5)CC4)CC3(F)F)c(F)c2)C(=O)N1 (stereo partly drawn) [Compound 390, trans-3-[4-[3,3-difluoro-1-[[1-[4-[[5-fluoro-4-[3-(2-oxo-1-pyridyl)phenyl]pyrimidin-2-yl]amino]cyclohexanecarbonyl]-4-piperidyl]methyl]-4-piperidyl]-3-fluoro-anilino]piperidine-2,6-dione]
O=C1CCC(Nc2ccc(C3CCN([C@H]4CC[C@H](NC(=O)[C@H]5CC[C@H](Nc6ncc(F)c(-c7cccc(N8CCCOC8=O)c7)n6)CC5)CC4)CC3)c(F)c2)C(=O)N1 (stereo partly drawn) [Compound 563, trans-N-(trans-4-(4-(4-((2,6-dioxopiperidin-3-yl)amino)-2-fluorophenyl)piperidin-1-yl)cyclohexyl)-4-((5-fluoro-4-(3-(2-oxo-1,3-oxazinan-3-yl)phenyl)pyrimidin-2-yl)amino)cyclohexane-1-carboxamide]
O=C1CCC(Nc2ccc(C3CCN(C4CC5(CC(OC(=O)N6CCC(Nc7ncc(F)c(-c8cccc(-n9ccccc9=O)c8)n7)CC6)C5)C4)CC3)c(F)c2)C(=O)N1 (centres unmarked) [Compound 633, 6-(4-(4-((2,6-dioxopiperidin-3-yl)amino)-2-fluorophenyl)piperidin-1-yl)spiro[3.3]heptan-2-yl 4-((5-fluoro-4-(3-(2-oxopyridin-1 (2H)-yl)phenyl)pyrimidin-2-yl)amino)piperidine-1-carboxylate]
O=C1CCC(Nc2ccc(N3CCC(N4CCC(C(=O)N[C@H]5CC[C@H](Nc6ncc(F)c(-c7cccc(N8CCCCC8=O)c7)n6)CC5)CC4)CC3)c(F)c2)C(=O)N1 (stereo partly drawn) [Compound 587, 1′-(4-((2,6-dioxopiperidin-3-yl)amino)-2-fluorophenyl)-N-(trans-4-((5-fluoro-4-(3-(2-oxopiperidin-1-yl)phenyl)pyrimidin-2-yl)amino)cyclohexyl)-[1,4′-bipiperidine]-4-carboxamide]
O=C1CCC(Nc2ccc(C3CCN(CC4CCN(C(=O)[C@H]5CC[C@H](Nc6ncc(F)c(-c7cccc(N8CCCCC8)c7)n6)CC5)CC4)CC3)c(F)c2)C(=O)N1 (stereo partly drawn) [Compound 477, trans-3-((3-fluoro-4-(1-((1-(trans-4-((5-fluoro-4-(3-(piperidin-1-yl)phenyl)pyrimidin-2-yl)amino)cyclohexane-1-carbonyl)piperidin-4-yl)methyl)piperidin-4-yl)phenyl)amino)piperidine-2,6-dione]
O=C1CCC(Nc2ccc(C3CCN([C@H]4CC[C@H](NC(=O)[C@H]5CC[C@H](Nc6ncc(F)c(-c7cccc(N8CCCCC8=O)c7)n6)CC5)CC4)CC3)c(F)c2)C(=O)N1 (stereo partly drawn) [Compound 565, trans-N-(trans-4-(4-(4-((2,6-dioxopiperidin-3-yl)amino)-2-fluorophenyl)piperidin-1-yl)cyclohexyl)-4-((5-fluoro-4-(3-(2-oxopiperidin-1-yl)phenyl)pyrimidin-2-yl)amino)cyclohexane-1-carboxamide]

same assay, conditions: 24 hours incubation, MOLT-4, top concentration 10 micromolar; read-out: HiBIT-degradation MOLT4 PIP4k2C 24 hours DC50

DC50, < 0.5 µM:
O=C1CCC(Nc2ccc(N3CCN(CC4CCN(C(=O)[C@H]5CC[C@H](Nc6ncc(F)c(-c7cccc(-n8ccccc8=O)c7)n6)CC5)CC4)CC3)c(F)c2)C(=O)N1 (stereo partly drawn) [Compound 374, trans-3-((3-fluoro-4-(4-((1-(4-((5-fluoro-4-(3-(2-oxopyridin-1(2H)-yl)phenyl)pyrimidin-2-yl)amino)cyclohexane-1-carbonyl)piperidin-4-yl)methyl)piperazin-1-yl)phenyl)amino)piperidine-2,6-dione]
O=C1CCC(Nc2ccc(N3CCC(N4CC5(CC(OC(=O)N[C@H]6CC[C@H](Nc7ncc(F)c(-c8cccc(-n9ccccc9=O)c8)n7)CC6)C5)C4)CC3)c(F)c2)C(=O)N1 (stereo partly drawn) [Compound 377, trans-2-(1-(4-((2,6-dioxopiperidin-3-yl)amino)-2-fluorophenyl)piperidin-4-yl)-2-azaspiro[3.3]heptan-6-yl (4-((5-fluoro-4-(3-(2-oxopyridin-1(2H)-yl)phenyl)pyrimidin-2-yl)amino)cyclohexyl)carbamate]
O=C1CCC(N2Cc3cc(C4CCN(CCC5CCN(C(=O)[C@H]6CCC[C@@H](Nc7ncc(Cl)c(-c8cccc(-c9ccccc9)c8)n7)C6)CC5)CC4)ccc3C2=O)C(=O)N1 (relative stereo) [Compound 62, cis-3-(5-(1-(2-(1-(3-((4-([1,1′-biphenyl]-3-yl)-5-chloropyrimidin-2-yl)amino)cyclohexane-1-carbonyl)piperidin-4-yl)ethyl)piperidin-4-yl)-1-oxoisoindolin-2-yl)piperidine-2,6-dione]
O=C1CCC(n2c(=O)oc3cc(C4CCN(CC5CCN(CC(=O)N6CCC(Nc7ncc(F)c(-c8cccc(N9CCOC9=O)c8)n7)CC6)CC5)CC4)ccc32)C(=O)N1 (centres unmarked) [Compound 372, 3-(6-(1-((1-(2-(4-((5-fluoro-4-(3-(2-oxooxazolidin-3-yl)phenyl)pyrimidin-2-yl)amino)piperidin-1-yl)-2-oxoethyl)piperidin-4-yl)methyl)piperidin-4-yl)-2-oxobenzo[d]oxazol-3 (2H)-yl)piperidine-2,6-dione]
O=C1CCC(Nc2ccc(C3CCN(C[C@H]4CC[C@H](NC(=O)[C@H]5CCC[C@@H](Nc6ncc(F)c(-c7cccc(-n8ccccc8=O)c7)n6)C5)CC4)CC3)c(F)c2)C(=O)N1 (stereo in doubt) [Compound 324, trans-N-(cis-4-((4-(4-((2,6-dioxopiperidin-3-yl)amino)-2-fluorophenyl)piperidin-1-yl)methyl)cyclohexyl)-3-((5-fluoro-4-(3-(2-oxopyridin-1(2H)-yl)phenyl)pyrimidin-2-yl)amino)cyclohexane-1-carboxamide]
O=C1CCC(n2c(=O)oc3cc(C4CCN(CC(=O)N5CCC(O)(C(=O)N6CCC(Nc7ncc(F)c(-c8cccc(-n9ccccc9=O)c8)n7)CC6)CC5)CC4)ccc32)C(=O)N1 (centres unmarked) [Compound 331, 3-(6-(1-(2-(4-(4-((5-fluoro-4-(3-(2-oxopyridin-1(2H)-yl)phenyl)pyrimidin-2-yl)amino)piperidine-1-carbonyl)-4-hydroxypiperidin-1-yl)-2-oxoethyl)piperidin-4-yl)-2-oxobenzo[d]oxazol-3 (2H)-yl)piperidine-2,6-dione]
Cn1c(=O)n(C2CCC(=O)NC2=O)c2ccc(C3CCN(CC4CCN(CC(=O)N5CCC(Nc6ncc(F)c(-c7cccc(-n8ccccc8=O)c7)n6)CC5)CC4)CC3)cc21 (centres unmarked) [Compound 312, 3-(5-(1-((1-(2-(4-((5-fluoro-4-(3-(2-oxopyridin-1(2H)-yl)phenyl)pyrimidin-2-yl)amino)piperidin-1-yl)-2-oxoethyl)piperidin-4-yl)methyl)piperidin-4-yl)-3-methyl-2-oxo-2,3-dihydro-1H-benzo[d]imidazol-1-yl)piperidine-2,6-dione]
Cn1c(=O)n(C2CCC(=O)NC2=O)c2ccc(C3CCN(CCC4CCN(C(=O)[C@@H]5CCC[C@H](Nc6ncc(F)c(-c7cccc(-n8ccccc8=O)c7)n6)C5)CC4)CC3)cc21 (stereo partly drawn) [Compound 335, 3-(5-(1-(2-(1-((1R,3S)-3-((5-fluoro-4-(3-(2-oxopyridin-1(2H)-yl)phenyl)pyrimidin-2-yl)amino)cyclohexane-1-carbonyl)piperidin-4-yl)ethyl)piperidin-4-yl)-3-methyl-2-oxo-2,3-dihydro-1H-benzo[d]imidazol-1-yl)piperidine-2,6-dione]

same assay, conditions: read-out: HiBIT-degradation MOLT4 PIP4k2C DC50 (6 hours, marked *); 6 hours of incubation time, rather than 24 hours; MOLT-4, top concentration 10 micromolar

DC50, < 0.5 µM:
O=C1CCC(Nc2ccc(C3CCN([C@H]4CC[C@H](C(=O)N[C@H]5CC[C@H](Nc6ncc(F)c(-c7cccc(-n8ccccc8=O)c7)n6)CC5)CC4)CC3)c(F)c2)C(=O)N1 (stereo partly drawn) [Compound 345, trans-4-(4-(4-((2,6-dioxopiperidin-3-yl)amino)-2-fluorophenyl)piperidin-1-yl)-N-(trans-4-((5-fluoro-4-(3-(2-oxopyridin-1(2H)-yl)phenyl)pyrimidin-2-yl)amino)cyclohexyl)cyclohexane-1-carboxamide]
